Columns and labels:
[1] = P 0.69 versus P 0.00145
Description: The partitioning coefficient can be used as a measure of lipid solubility.

nicotinic receptors = settings: inhaled; compared to other nicotine salts such as nicotine salicylate; cited from earlier work
[2] = cited from earlier work; for P (octanol:water partitioning coefficient): [solute in octanol]:[solute in aqueous buffer]; for P (octanol:water partitioning coefficient) / % Aqueous: phosphate buffer; for P (octanol:water partitioning coefficient) / logP / % Aqueous: pH 7.4; for logP: octanol : aqueous phosphate buffer; for % Nonpolar: share of solute in octanol phase

Compound: Nicotine Levulinate
- increase of partitioning coefficient P in comparison to levulinic acid [1]: 500 fold
- increase in proportion of nicotine binding sites (nicotinic receptors): 20-50%
- P (octanol:water partitioning coefficient) [2]: 0.69
- logP [2]: −0.16
- % Aqueous [2]: 59%
- % Nonpolar [2]: 41%

Compound: CC(=O)CCC(=O)O [Levulinic Acid]
- P (octanol:water partitioning coefficient) [2]: 0.00145
- logP [2]: −2.84
- % Aqueous [2]: 99.85%
- % Nonpolar [2]: 0.15%

Compound: CN1CCCC1c1cccnc1 (centres unmarked) [Nicotine]
- P (octanol:water partitioning coefficient) [2]: 2.82
- logP [2]: 0.45
- % Aqueous [2]: 26%
- % Nonpolar [2]: 74%
